From patent US11666589B2, “Pivarubicin and benzarubicin compositions” (Paradox Pharmaceuticals, Inc., priority 2020, dated 2023)

Key:
[1] = tested on: CEM/VLB-10; experiment: Drug resistance of P-glycoprotein overexpressing CEM/VLB-10 cells; assay type: cell-based, human; settings: CEM/VLB-10 versus CCRF-CEM
Description: Pivarubicin used for TNBC studies was synthesized by Dr. John Rimoldi (Univ. of Mississippi) using the previously described protocol. Doxorubicin HCl, rottlerin and all antibodies were purchased from Sigma-Aldrich (St. Louis, Mo.). For in vitro experiments, doxorubicin and pivarubicin were dissolved in DMSO. The final maximum DMSO concentration used for in vitro drug treatments (1% for 72 hours) was not cytotoxic. IL-3-dependent 32D.3 murine myeloid cells, CCRF-CEM human lymphoblastic leukemia cells and multidrug-resistant variants (generous gift of Dr. William T. Beck, St. Jude Children's Research Hospital, Memphis, Tenn.), 293 embryonic human kidney cells and HL-60 human acute myeloid leukemia cells transfected with Bcr-Abl, Bcl-XL or empty expression vectors (generous gift of Dr. Kapil Bhalla, Univ. of Miami) were maintained as previously described. K562 human chronic myelogenous leukemia and LNCaP human prostate cancer cells were purchased from ATCC (Manassas, Va.) and maintained as described by the vendor. LNCaP/Bcl-2 cells were the generous gift of Dr. Ralph Buttyan (Columbia Univ.). Luminescent MDA-MB-231-LM2 (LM-2; metastatic lung subpopulation isolated from human TNBC MDA-MB-231 cells transduced with eIF1a-Luc2-puro lentivirus) were generously provided by Dr. Yibin Kang, Princeton Univ.) and maintained in culture as previously described. […]

[2] = Cardiotoxicity assessment (Bertazzoli Test), non-tumor-bearing mice; assay type: in vivo, female NSG mice; settings: for hearts with Severity 0 / hearts with Severity 0.5 / hearts with Severity 1.0 / hearts with Total Score 0 / hearts with Total Score 0.5 / hearts with Total Score 1.0: Non-Tumor-Bearing; for hearts with Severity 0 / hearts with Severity 0.5 / hearts with Severity 1.0: 3 i.p. doses at 2-week intervals; for hearts with Total Score 0 / hearts with Total Score 0.5 / hearts with Total Score 1.0: severity×extension
Description: Drug-mediated cardiotoxicity was assessed in both non-tumor-bearing female NSG mice administered three doses (i.p. every two weeks) of the MTD of doxorubicin, pivarubicin or the equivalent volume of solvent only and in hearts excised from tumor-bearing mice treated as described in Results section. Body weights were monitored every three days. Two weeks after final dose, mice were sacrificed, and hearts were excised immediately. Intact ventricular myocardia were fixed for a minimum of 24 h in 10% formalin phosphate buffered to pH 7.0 and then carefully sectioned into 2 to 3-mm thick slices before being dehydrated in graded ethanol and cleared in xylene prior to embedding in paraffin at 58° C. Sections (4-μm thick) were mounted on glass slides, deparaffinized in xylene, and stained in the routine fashion with Mayer's hematoxylin and eosin. Slide labels were blinded to evaluator. Myocardial lesions were evaluated by routine light microscopy and scored with regard to the severity and extent of damage:
Degree of severity (S)—0, no evidence of histological changes; 1, sarcoplasmic microvacuolization and/or inclusions (interstitial or cellular edema); 2, as in 1 plus sarcoplasmic macrovacuolization or atrophia, necrosis, fibrosis, endocardial lesions, and thrombi.
Degree of extension (E)—0, no lesions; 0.5, less than 10 single altered myocytes on the whole-heart section; 1, scattered single altered myocytes; 2, scattered small groups of altered myocytes; 3, spread small groups of altered myocytes; 4, confluent groups of altered myocytes; 5, most of cells damaged.
Total cardiotoxicity score/animal=S×E and mean total score (MTS) for each treatment group was MTS=(S×E)/number of animals.
Given the limitation of doxorubicin in the treatment of tumors due to irreversible cardiotoxicity due to the total cumulative dose of drug, it was next determined whether pivarubicin produced evidence of cardiotoxic damage at the total dose of drug administered to NSG mice that produced tumor growth inhibition. Histological evidence of ventricular damage in hearts of drug- or vehicle-treated NSG mice were assessed using the Bertazzoli Test, originally designed to assess doxorubicin-induced cardiomyocyte damage. Analyses were performed on hearts from two independent experiments: 1) hearts that were excised at dosing endpoint from tumor-bearing NSG mice receiving 2 i.p. doses of pivarubicin at 16.5 mg/kg, doxorubicin at 1.4 mg/kg then 1.6 mg/kg and an equivalent volume of vehicle alone and 2) non-tumor-bearing female NSG mice receiving 3 i.p. doses of pivarubicin at 16.5 mg/kg, doxorubicin at 1.4 mg/kg then 1.6 mg/kg×2 and an equivalent volume of vehicle alone at 2-week intervals.
Non-tumor-bearing female NSG mice at 9 weeks old were treated with either 16.5 mg/kg pivarubicin (PIV), 1.4 mg/kg (1×) and 1.6 mg/kg (2×) doxorubicin and equivalent volumes of vehicle i.p. at 2-week intervals. Tumor-bearing female NSG mouse treatment was as described for the “Cardiotoxicity Assessment method” method. At endpoint, hearts were excised and prepared for histological analysis as described above. Severity and severity×extension (total score) are defined in Materials and Methods.

## COc1cccc2c1C(=O)c1c(O)c3c(c(O)c1C2=O)C[C@@](O)(C(=O)COC(=O)C(C)(C)C)C[C@@H]3O[C@H]1C[C@H](NCc2ccccc2)[C@H](O)[C@H](C)O1 [Pivarubicin, N-Benzyladriamycin-14-pivalate]
[1]
  resistance: no resistance
[2]
  hearts with Severity 0: 9/9
  hearts with Severity 0.5: 0/9
  hearts with Severity 1.0: 0/9
  hearts with Total Score 0: 9/9
  hearts with Total Score 0.5: 0/9
  hearts with Total Score 1.0: 0/9
[2]; non-tumor-bearing mice (n=9), cumulative tumor growth inhibitory dose
  histologic damage to ventricular cardiomyocytes: no evidence of histologic damage

## COc1cccc2c1C(=O)c1c(O)c3c(c(O)c1C2=O)C[C@@](O)(C(=O)CO)C[C@@H]3O[C@H]1C[C@H](N)[C@H](O)[C@H](C)O1 [Doxorubicin, reference compound]
[1]
  resistance: 12 fold
[2]
  hearts with Severity 0: 5/9
  hearts with Severity 0.5: 0/9
  hearts with Severity 1.0: 4/9
  hearts with Total Score 0: 7/9
  hearts with Total Score 0.5: 2/9
  hearts with Total Score 1.0: 0/9
